pIC50: −log10 of the molar value.
biological target: Epidermal growth factor receptor (Homo sapiens, UniProt P00533); test: not given; conditions: not given
Sequence (P00533 whole entry): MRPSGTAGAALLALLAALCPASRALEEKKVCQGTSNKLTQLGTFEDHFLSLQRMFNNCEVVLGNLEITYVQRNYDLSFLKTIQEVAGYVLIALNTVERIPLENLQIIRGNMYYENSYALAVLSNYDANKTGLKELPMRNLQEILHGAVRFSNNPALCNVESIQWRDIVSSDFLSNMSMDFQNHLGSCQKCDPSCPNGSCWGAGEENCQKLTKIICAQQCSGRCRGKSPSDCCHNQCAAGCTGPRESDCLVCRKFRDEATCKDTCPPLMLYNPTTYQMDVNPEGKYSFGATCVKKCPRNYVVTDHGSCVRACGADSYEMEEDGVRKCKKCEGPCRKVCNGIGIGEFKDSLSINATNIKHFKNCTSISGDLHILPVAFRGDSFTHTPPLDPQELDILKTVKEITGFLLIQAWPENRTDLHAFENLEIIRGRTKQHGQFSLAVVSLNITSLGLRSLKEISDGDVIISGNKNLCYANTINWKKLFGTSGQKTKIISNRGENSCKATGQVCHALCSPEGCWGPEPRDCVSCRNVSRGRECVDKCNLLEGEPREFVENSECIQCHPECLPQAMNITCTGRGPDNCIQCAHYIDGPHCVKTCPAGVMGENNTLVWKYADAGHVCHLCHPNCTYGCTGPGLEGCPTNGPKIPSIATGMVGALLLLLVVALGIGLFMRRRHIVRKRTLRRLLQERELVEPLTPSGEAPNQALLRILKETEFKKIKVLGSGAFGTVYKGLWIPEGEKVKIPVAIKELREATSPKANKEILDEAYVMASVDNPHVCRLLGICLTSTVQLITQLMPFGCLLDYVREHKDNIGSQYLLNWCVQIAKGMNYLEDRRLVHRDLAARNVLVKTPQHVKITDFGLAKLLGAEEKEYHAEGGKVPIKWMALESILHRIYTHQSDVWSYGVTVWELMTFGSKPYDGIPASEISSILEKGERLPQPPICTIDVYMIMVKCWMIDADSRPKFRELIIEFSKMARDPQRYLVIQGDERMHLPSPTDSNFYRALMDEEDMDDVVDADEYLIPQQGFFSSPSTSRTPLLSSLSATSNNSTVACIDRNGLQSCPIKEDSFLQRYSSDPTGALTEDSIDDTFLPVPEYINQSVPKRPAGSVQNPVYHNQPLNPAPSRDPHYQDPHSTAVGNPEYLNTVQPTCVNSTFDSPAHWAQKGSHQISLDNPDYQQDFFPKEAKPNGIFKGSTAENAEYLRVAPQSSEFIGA

Row | pIC50 | Structure (SMILES)
1 | 7.39 | Clc1cc2c(Nc3cccc(Br)c3)ncnc2cn1
2 | 7.92 | OCCN(CCO)c1c(Br)cccc1Nc1ncnc2ccncc12
3 | 8.25 | Cc1cccc(Nc2ncnc3ccncc23)c1NCCCN1CCN(C)CC1
4 | 7.53 | CC(=O)Nc1c(Br)cccc1Nc1ncnc2ccncc12
5 | 8.85 | O=S(=O)(O)CCNc1c(Br)cccc1Nc1ncnc2ccncc12
6 | 8.39 | CNc1ccc2ncnc(Nc3cccc(Br)c3)c2c1
7 | 6.17 | COc1ccc(Nc2ncnc3ccncc23)c(N)c1
8 | 8.05 | CN(C)CCCNc1c(Br)cccc1Nc1ncnc2ccncc12
9 | 7.39 | CN(C)CCN(C)c1c(Br)cccc1Nc1ncnc2ccncc12
10 | 6.60 | Nc1ccccc1Nc1ncnc2ccncc12
11 | 5.27 | Nc1cc2ncnc(Nc3ccccc3N)c2cn1
12 | 6.90 | Fc1cc2c(Nc3cccc(Br)c3)ncnc2cn1
13 | 8.07 | CN(C)CCCCCNc1c(Br)cccc1Nc1ncnc2ccncc12
14 | 8.26 | Brc1cccc(Nc2ncnc3ccncc23)c1NCCCCN1CCOCC1
15 | 8.92 | OCCN(CCO)CCCNc1c(Br)cccc1Nc1ncnc2ccncc12
16 | 9.29 | Brc1cccc(Nc2ncnc3ccncc23)c1NCCCn1ccnc1
17 | 7.59 | Nc1cc(Br)ccc1Nc1ncnc2ccncc12
18 | 5.32 | Nc1cc(C(F)(F)F)ccc1Nc1ncnc2ccncc12
19 | 7.39 | Nc1c(Nc2ncnc3ccncc23)cccc1[N+](=O)[O-]
20 | 7.45 | Brc1cccc(Nc2ncnc3ccncc23)c1
21 | 8.49 | CN(CC(O)CO)c1c(Br)cccc1Nc1ncnc2ccncc12 (stereo unspecified)
22 | 8.03 | OCCN(CCO)CCNc1c(Br)cccc1Nc1ncnc2ccncc12
23 | 5.43 | COc1cc2ncnc(Nc3ccccc3N)c2cn1
24 | 8.14 | NNc1c(Br)cccc1Nc1ncnc2ccncc12
25 | 7.88 | Fc1c(Br)cccc1Nc1ncnc2ccncc12
26 | 5.74 | CN(C)c1cccc(Nc2ncnc3ccncc23)c1N
27 | 8.72 | Brc1cccc(Nc2ncnc3ccncc23)c1NCCCN1CCOCC1

Row | pIC50 | Structure (SMILES)
28 | 8.00 | Nc1c(Br)cccc1Nc1ncnc2ccncc12
29 | 6.61 | Nc1ccccc1Nc1ncnc2cc(Br)ncc12
30 | 9.03 | OCC(O)CNc1c(Br)cccc1Nc1ncnc2ccncc12 (stereo unspecified)
31 | 7.34 | CN(C)CCNc1c(Br)cccc1Nc1ncnc2ccncc12
32 | 6.88 | COc1cccc(Nc2ncnc3ccncc23)c1N
33 | 6.92 | Nc1c(Cl)cccc1Nc1ncnc2ccncc12
34 | 8.58 | CN(CCO)c1c(Br)cccc1Nc1ncnc2ccncc12
35 | 7.85 | OCN(CO)c1c(Br)cccc1Nc1ncnc2ccncc12
36 | 8.13 | CN(C)CCCCNc1c(Br)cccc1Nc1ncnc2ccncc12
37 | 9.55 | O=C(O)CCCNc1c(Br)cccc1Nc1ncnc2ccncc12
38 | 5.31 | CN(C)c1ccc(Nc2ncnc3ccncc23)c(N)c1
39 | 7.07 | CN(C)c1ccc2ncnc(Nc3cccc(Br)c3)c2c1
40 | 8.26 | Cc1cccc(Nc2ncnc3ccncc23)c1NCCCCN(C)C
41 | 8.45 | Cc1cccc(Nc2ncnc3ccncc23)c1NCCCn1ccnc1
42 | 6.07 | Nc1c(F)cccc1Nc1ncnc2ccncc12
43 | 9.04 | Brc1cccc(Nc2ncnc3ccncc23)c1NCCc1c[nH]cn1
44 | 7.39 | CC(=O)Nc1ccc2c(Nc3cccc(Br)c3)ncnc2c1
45 | 9.21 | O=C(O)CCNc1c(Br)cccc1Nc1ncnc2ccncc12
46 | 6.04 | O=[N+]([O-])c1ccc2ncnc(Nc3cccc(Br)c3)c2c1
47 | 8.49 | Brc1cccc(Nc2ncnc3ccncc23)c1NCCN1CCOCC1
48 | 8.82 | O=C(O)CNc1c(Br)cccc1Nc1ncnc2ccncc12
49 | 7.15 | Nc1c(O)cccc1Nc1ncnc2ccncc12
50 | 8.32 | Oc1ccc2c(Nc3cccc(Br)c3)ncnc2c1
51 | 7.79 | CN(CC(=O)O)c1c(Br)cccc1Nc1ncnc2ccncc12
52 | 9.61 | OCCNc1c(Br)cccc1Nc1ncnc2ccncc12
53 | 7.40 | COc1c(Br)cccc1Nc1ncnc2ccncc12
54 | 8.30 | CN1CCN(CCCNc2c(Br)cccc2Nc2ncnc3ccncc23)CC1

The remaining lines, values behind:

Row | Structure (SMILES) | pIC50
55 | CN(C)c1ccc2ncnc(Nc3cccc(Br)c3)c2n1 | 8.01
56 | COc1ccc2ncnc(Nc3ccccc3)c2c1 [listing 1 of 2 here] | 6.92
57 | COc1ccc2ncnc(Nc3ccccc3)c2c1 [listing 2 of 2 here] | 7.25
58 | Clc1ncc2ncnc(Nc3cccc(Br)c3)c2n1 | 7.08
59 | CNc1ncc2ncnc(Nc3ccccc3)c2n1 | 7.88
60 | COc1cc2c(Nc3cccc(Br)c3)ncnc2cn1 | 8.58
61 | FC(F)(F)c1cccc(Nc2ncnc3ccccc23)c1 | 6.23
62 | O=[N+]([O-])c1ccc2c(Nc3cccc(I)c3)ncnc2c1 | 6.26
63 | Ic1cccc(Nc2ncnc3ccccc23)c1 | 7.09
64 | Cc1cccc(Nc2ncnc3cnc(N(C)C)nc23)c1 | 8.39
65 | CN(C)c1ccc2c(Nc3cccc(Br)c3)ncnc2n1 | 6.48
66 | COc1cc2ncnc(Nc3ccccc3)c2cc1OC | 7.53
67 | CN(C)c1ccc2c(Nc3cccc(Br)c3)ncnc2c1 | 7.95
68 | COc1ccc2ncnc(Nc3cccc(Br)c3)c2n1 | 8.36
69 | CNc1cc2ncnc(Nc3cccc(Br)c3)c2cc1[N+](=O)[O-] | 7.16
70 | Cc1cccc(Nc2ncnc3cnc(N)nc23)c1 | 7.76
71 | Brc1cccc(Nc2ncnc3cccnc23)c1 | 7.46

Row | Structure (SMILES) | pIC50
72 | Fc1ccc2ncnc(Nc3cccc(Br)c3)c2n1 | 7.35
73 | Clc1cccc(Nc2ncnc3ccccc23)c1 | 7.63
74 | COc1ccc(CNc2cc3c(Nc4cccc(Br)c4)ncnc3cn2)cc1 | 8.63
75 | CNc1ncc2ncnc(Nc3cccc(Br)c3)c2n1 | 9.11
76 | Nc1ccc2ncnc(Nc3cccc(Br)c3)c2n1 | 8.11
77 | CN(C)c1cc2ncnc(Nc3cccc(Br)c3)c2cc1N | 6.79
78 | COc1cc2ncnc(Nc3cccc(C(F)(F)F)c3)c2cc1OC | 9.61
79 | Brc1cccc(Nc2ncnc3ccccc23)c1 | 7.56
80 | Cc1cccc(Nc2ncnc3cnc(NCCN4CCOCC4)nc23)c1 | 8.63
81 | CCCOc1cc2ncnc(Nc3cccc(Br)c3)c2cc1OCCC | 9.76
82 | COc1ccc2ncnc(Nc3cccc(Br)c3)c2c1 | 6.45
83 | Brc1cccc(Nc2ncnc3cnc(NCCn4ccnc4)nc23)c1 | 8.63
84 | CNc1ccc2ncnc(Nc3cccc(Br)c3)c2n1 | 8.50
85 | COc1cc2ncnc(Nc3ccc(Br)cc3)c2cc1OC | 10.14
86 | Oc1cc2ncnc(Nc3cccc(Br)c3)c2cc1O | 9.76
87 | Nc1cc2c(Nc3cccc(Br)c3)ncnc2cc1Cl | 8.18

test system: not listed separately; test: Inhibition of CDK2/Cyclin A; conditions: not given

Row | pIC50 | Structure (SMILES)
88 | 4.32 | CCCCOc1nc(N)nc2[nH]cnc12
89 | 4.19 | CC(C)C1(COc2nc(N)nc3[nH]cnc23)OCCO1
90 | 4.33 | C=CCCCCOc1nc(N)nc2[nH]cnc12
91 | 4.31 | CCCCCOc1nc(N)nc2[nH]cnc12
92 | < 4.00 | CCCCCCCOc1nc(N)nc2[nH]cnc12
93 | 4.51 | Nc1nc(OCC2=CCCC2)c2nc[nH]c2n1
94 | 4.36 | Nc1nc(OCCC2CCCCC2)c2nc[nH]c2n1
95 | 4.80 | C=C(COc1nc(N)nc2[nH]cnc12)C(C)C
96 | 4.68 | Nc1nc(OCC2CCCC2)c2nc[nH]c2n1

test system: not listed separately; test: cells; conditions: T-cell

Row | Structure (SMILES) | pIC50
97 | COc1cc2nc(Nc3c(C)cccc3Cl)c3cncn3c2cc1OC | 6.17
98 | COc1cc2c(cc1OCCN1CCOCC1)nc(Nc1c(C)cccc1Cl)c1cncn12 | 6.33
99 | CC(=O)Nc1ccc2nc(Nc3c(C)cccc3Cl)c3cncn3c2c1 | 5.85
100 | Cc1cccc(Cl)c1Nc1nc2ccc(N3CCN(C)CC3)cc2n2cncc12 | 6.62
101 | Cc1cccc(Cl)c1Nc1nc2cc(N3CCOCC3)ccc2n2cncc12 | 6.00
102 | Cc1cccc(Cl)c1Nc1nc2ccc(N3CCOCC3)cc2n2cncc12 | 6.11
103 | COc1cc2c(cc1NCCN(C)C)nc(Nc1c(F)cccc1Cl)c1cncn12 | 6.62
104 | Cc1cccc(Cl)c1Nc1nc2ccc(N3CCN(C=O)CC3)cc2n2cncc12 | 6.28
105 | COc1cc2c(cc1NCCN(C)C)nc(Nc1c(C)cccc1Cl)c1cncn12 | 6.72
106 | COc1cc2nc(Nc3c(C)cccc3C)c3cncn3c2cc1OC | 5.96
107 | Cc1cccc(Cl)c1Nc1nc2cc(NCCN(C)C)ccc2n2cncc12 | 6.28
108 | Cc1cccc(Cl)c1Nc1nc2ccc(N)cc2n2cncc12 | 5.80
109 | Cc1cccc(Cl)c1Nc1nc2ccc(NCCN(C)C)cc2n2cncc12 | 6.06
110 | Cc1cccc(Cl)c1Nc1nc2cc3c(cc2n2cncc12)OCO3 | 5.70
111 | Cc1cccc(Cl)c1Nc1nc2cc(O)c(O)cc2n2cncc12 | < 5.05
112 | Cc1cccc(Cl)c1Nc1nc2cc3c(cc2n2cncc12)OCCO3 | 5.66
113 | CCN(CC)c1ccc2nc(Nc3c(C)cccc3Cl)c3cncn3c2c1 | 5.59
114 | COc1ccc2nc(Nc3c(C)cccc3Cl)c3cncn3c2c1 | 5.85

Row | Structure (SMILES) | pIC50
115 | COc1cccc2nc(Nc3c(C)cccc3Cl)c3cncn3c12 | 5.64
116 | Cc1cccc(Cl)c1Nc1nc2cc(NCCCN(C)C)ccc2n2cncc12 | 6.32
117 | COc1ccc2c(c1)nc(Nc1c(C)cccc1Cl)c1cncn12 | 5.59
118 | Cc1cccc(Cl)c1Nc1nc2ccc(N(C)C)cc2n2cncc12 | 5.70
119 | COc1cc2nc(Nc3c(C)cccc3Cl)c3cncn3c2cc1N1CC(C)NC(C)C1 (stereo unspecified) | 6.12
120 | CCNc1ccc2nc(Nc3c(C)cccc3Cl)c3cncn3c2c1 | 5.66
121 | Cc1cccc(Cl)c1Nc1nc2cc(N3CC(C)NC(C)C3)ccc2n2cncc12 (stereo unspecified) | 6.24
122 | CCN(CC)c1ccc2c(c1)nc(Nc1c(C)cccc1Cl)c1cncn12 | 5.77
123 | Cc1cccc(Cl)c1Nc1nc2ccc(N3CC(C)NC(C)C3)cc2n2cncc12 (stereo unspecified) | 6.47
124 | Cc1cccc(Cl)c1Nc1nc2ccc(N3CCNCC3)cc2n2cncc12 | 6.42
125 | Cc1cccc(Cl)c1Nc1nc2ccc(N3CCCN(C)CC3)cc2n2cncc12 | 6.27
126 | Cc1cccc(Cl)c1Nc1nc2cc(N3CCN(C)CC3)ccc2n2cncc12 | 6.14
127 | Cc1cccc(Cl)c1Nc1nc2ccc(NCCN3CCOCC3)cc2n2cncc12 | 5.89
128 | Cc1cccc(Cl)c1Nc1nc2cc(N3CCNCC3)ccc2n2cncc12 | 6.00
129 | Cc1cccc(Cl)c1Nc1nc2ccc(NCCCN3CCOCC3)cc2n2cncc12 | 6.12
130 | CCN1CCN(c2ccc3nc(Nc4c(C)cccc4Cl)c4cncn4c3c2)CC1 | 6.57
131 | COc1cc2c(cc1NCCN1CCOCC1)nc(Nc1c(C)cccc1Cl)c1cncn12 | 6.55

From ChEMBL document CHEMBL1143196, “Discovery of kinase inhibitors by high-throughput docking and scoring based on a transferable linear interaction energy model” (J Med Chem, 2008)
